In patent US11926679B2, “Oligopeptide search method, oligopeptide, modified peptide, and immunoassay method” (ZEON CORPORATION, priority 2016, dated 2024):

Tests used:
[1] = Evaluation of adhesiveness to the container (anti-6-His detection, absorbance at 450 nm); type: binding
Experimental: Polypeptide 1, Polypeptide 2, and a human normal IgG antibody (manufactured by Wako Pure Chemical Industries, Ltd.) were dissolved in a PBS solution and 10% DMSO in PBS (10% DMSO PBS) each in a concentration of 10 μg/ml to give various solutions.
To a 96-well plate obtained by injection molding of a hydride of a norbornene-based ring-opened polymer [Zeonor® 1060R, manufactured by Zeon Corporation] (hereinafter referred to as a “1060R plate”) and a 96-well plate made of polystyrene (product name “Falcon® (Falcon is a registered trademark in Japan, other countries, or both)”, manufactured by Corning Incorporated; hereinafter referred to as a “TCPS plate”), each of the polypeptide solutions prepared above was added in an amount of 50 μL/well (N=3) and the plates were allowed to stand at room temperature (25° C.) for 1 hour.
After allowed to stand, the insides of the wells of the 1060R plate and the TCPS plate were washed three times with T-TBS (0.05 m Tris hydrochloric acid, 0.15 m sodium chloride, 0.05% Tween® 20; pH 7.6). […]
For the wells of each plate, the absorbance at 450 nm was measured using a well plate reader apparatus (manufactured by CORONA ELECTRIC Co., Ltd.).

[2] = system: CHO (Chinese Hamster Ovary) cells; assay: CHO cell shape on polypeptide-coated 1060R plate; type: cell-based; conditions: microscope, 5 hours after the start of culture, serum-free medium, coating 10 μg/ml
Experimental: Each of the solutions which this Polypeptide 3 and Polypeptide 2 obtained in Example 2 were dissolved in PBS in a concentration of 10 μg/ml respectively was filter-sterilized. To an EOG-sterilized 1060R plate, 50 μL per well of each of the resultant solution was added. The plates were allowed to stand at room temperature (25° C.) for 1 hour.
After allowed to stand, each of the 1060R plates incubated with Polypeptide 3 and Polypeptide 2 obtained in Example 2 was washed three times with sterilized PBS to obtain a Polypeptide 3-coated 1060R plate and a Polypeptide 2-coated 1060R plate.
To wells of the two plates thus obtained and a 1060R plate that was not coated with a polypeptide, CHO (Chinese Hamster Ovary) cells suspended in a serum-free medium (serum free medium ESF SFM Serum⋅Free Medium for Hybridoma, CHO & 293 Cells, manufactured by Expression Systems, LLC) were added and maintained the culture in a CO2 incubator at 37° C.

[3] = Phage display peptide library search on norbornene-based polymer culture dish; type: binding; conditions: tertiary phage solutions; washes with PBS, Glycine HCl pH 2, Glycine NaOH pH 10, then PBS containing 10% DMSO
Experimental: As a phage display peptide library, Ph.D.-C7C Phage Display Peptide Library Kit (manufactured by New England Biolabs Japan Inc.) was used.
The phage solution was dissolved in a phosphate buffer (PBS; a mixed solution of 137 mmol/l NaCl, 8.1 mmol/l Na2HPO4, 2.68 mmol/l KCl, and 1.47 mmol/l KH2PO4, pH 7.4) to give a peptide library.
Thereafter, the bottom of the culture dish was washed three times with PBS.
Subsequently, it was washed once with 40 mM Glycine HCl Buffer (pH 2.2) adjusted to pH 2, and further, 40 mM Glycine NaOH (pH 10) adjusted to pH 10 was added dropwise to it.
The dropped solution was collected, and the pH was immediately neutralized with a dilute hydrochloric acid (pH=7.0) to obtain a “phage solution washed with an alkali and collected”.
Subsequently, a PBS containing 10% DMSO was added dropwise to the bottom of the culture dish, and the dropped solution was collected to obtain a “phage solution washed with DMSO and collected.” […]
The gene sequences of the phages contained in the two phage solutions obtained by acquisition of the tertiary phage solutions were read to obtain corresponding amino acid sequences.

[4] = Blocking effect against non-specific adsorption of antibody, 1060R plate; conditions: solution containing no protein, 0.05% or 0.2% in PBS, FIG. 8
From the text: (§1) The container on which the synthetic BNP antigen was immobilized was blocked in the same manner as in Example 5, using a phosphate buffered saline containing 10% blocking agent (manufactured by NACALAI TESQUE, INC., product name “Blocking One”) containing a widely used casein (“Blocking One having a final concentration of 10%”), a phosphate buffered saline containing 0.05% Tween® 20 (“Tween® 20 PBS having a final concentration of 0.05%”), and a phosphate buffered saline containing 0.2% Tween® 20 (“Tween® 20 PBS having a final concentration of 0.2%”) as blocking agents, and compared to the condition without the blocking treatment.
(§2) As microwell plates, the 1060R plate (experimental example) and the PS plate (comparative example) were used. […]
(§3) After the resultant was allowed to stand, the solution in the wells was removed, followed by washing three times with a phosphate buffered saline containing 0.05% Tween® 20. […] After adding 0.1 M sulfuric acid as a stop solution, the absorbance at 450 nm was measured with a light absorption plate reader.
(§4) The value for each condition was determined using the relative value to the measured absorbance value of the well that was not subjected to blocking in the 1060R plate.

[5] = Blocking effect against non-specific adsorption of antibody, PS plate; conditions: containing no protein, FIG. 8
From the text: as §1, §2, §3, §4

[6] = Adsorption of antigen to multi-well plate, 1060R plate; type: binding; conditions: FIG. 6
From the text: (§5) The condition for adsorption of an antigen to a multi-well plate was examined. A comparison of adsorption of an antigen was made by using a 96-well plate obtained by injection molding of a hydride of a norbornene-based ring-opened polymer [Zeonor® 1060R, manufactured by Zeon Corporation] (hereinafter referred to as a “1060R plate”) and a 96-well plate made of polystyrene (product name “SUMILON® (SUMILON is a registered trademark in Japan, other countries, or both) ELISA Plate H”, manufactured by Sumitomo Bakelite Co., Ltd.; hereinafter referred to as a “PS plate”).
(§6) A peptide in which the amino acid sequence of […](SEQ ID NO: 7) that has the property of specifically attaching to a norbornene-based polymer is bound to the N terminal of the amino acid sequence of Cys-Lys-Val-Leu-Arg-Arg-His (SEQ ID NO: 6) of the antibody recognition site of the human BNP (brain natriuretic peptide) (hereinafter referred to as a “synthetic BNP antigen”) was synthesized. […]
(§7) Then, the synthetic BNP antigen immobilized in the plate was allowed to develop a color using a coloring reagent (manufactured by NACALAI TESQUE, INC., product name “ELISA POD Substrate TMB Solution”), and quenched with a dilute sulfuric acid, followed by measuring the absorbance at 450 nm by an absorbance plate reader.

[7] = Adsorption of antigen to multi-well plate, PS plate; type: binding; conditions: FIG. 6
From the text: as §5, §6, §7

Substance: ACTVDSCLTCGGGGGHHHHHH [Polypeptide 2]
- absorbance at 450 nm of the 1060R plate compared with the TCPS plate ([1]; 10 μg/ml polypeptide, 1 hour at room temperature, FIG. 2): higher than that of the TCPS plate
- adhesiveness to a norbornene-based polymer ([1]; conclusion from FIG. 2): high adhesiveness
- shape of CHO cells on coated 1060R plate [2]: rounded shapes

Substance: ACTVDSCLTCGGGGGRGDSPHHHHHH [Polypeptide 3]
- shape of CHO cells on coated 1060R plate [2]: shapes in which the cells were stretched

Substance: TVDNSLA [Thr-Val-Asp-Asn-Ser-Leu-Ala]
- adhesion/elution behaviour of the amino acid sequence on the norbornene-based polymer dish [3]: eluting at a high pH

Substance: TVDSCLT [Thr-Val-Asp-Ser-Cys-Leu-Thr]
- adhesion/elution behaviour of the amino acid sequence on the norbornene-based polymer dish [3]: continued to adhere even after washed with an alkali and was eluted with an organic solvent

Substance: polyoxyethylene sorbitan monolaurate [Tween® 20]
- blocking effect (relative absorbance at 450 nm) [4]: a blocking effect was observed
- blocking effect (relative absorbance at 450 nm) [5]: a blocking effect was lower as compared to a blocking agent containing a protein

Substance: synthetic BNP antigen: peptide in which SEQ ID NO: 7 (norbornene polymer-attaching sequence) is bound to the N terminal of SEQ ID NO: 6, antibody recognition site of human BNP (ACTVDSCLTCGGGGGSSSGLGCKVLRRH)
- attachment of antigen to the plate (absorbance at 450 nm) [6]: attached
- attachment of antigen to the plate (absorbance at 450 nm) [7]: not attached
